What was measured:
[1] = male, Wistar albino, rat, in vivo, po, 250 mg/kg
Protocol: Concentration was determined by HPLC/PDA detection.
[…] blood was collected after each time point, ca. 0, 0.5, 1, 3, 5, 10 and 24 hours respectively into heparinized tubes and centrifuged at 6000×g for 15 minutes. Plasma was decanted and stored at −80° C. until analysis. […] Briefly, 1 mL of plasma was extracted with 3×10 mL of ethyl acetate and is dried over anhydrous sodium sulphate and evaporated to dryness. The residue was then made up to 10 mL with methanol and 20 μL was injected to Shimadzu model LC-20 AT HPLC fitted with a PDA detector model M20A using a reverse phase C18 column (Phenomenex 250×4.6 mm, 5μ) and methanol mobile phase monitored at 420 nm.
Curcuminoid retention time was confirmed by repeated 10 analyses at 50 mg level on same column under identical conditions. […] Analysis was performed by incorporating a Waters Alliance LC fitted with Waters 3100 ESI mass detector.

[2] = In vitro release of curcumin at pH 6.8 and pH 1.2, 37 °C; type: physicochemical; conditions: for Cumulative percent of release of curcumin: 37 °C, after 24 hour
Protocol: Each data point is an average of 3 measurements (n=3) performed under identical conditions. […] Studies were performed in triplicate and mean cumulative percentage of released curcumin was calculated and plotted against time. […] This could be attributed to the very slow initial swelling of polysaccharide chains in water and its further dissolution to allow the leaching of entrapped curcumin into the solution in the dissolution flask.

[3] = human, in vivo, po
Protocol: The enhancement of bioavailability was also tested on human volunteers of age group between 25 to 50, who were healthy and not involved in any medication or health supplementation. The volunteers were not allowed to take turmeric-containing food for two days prior to the test.
6 mL blood of each volunteer was withdrawn at 0, 0.5, 1, 3, 5, 8 and 24 hours respectively and plasma samples were deep-frozen at −80° C. till analysis.

Structure (SMILES): COc1cc(/C=C/C(=O)CC(=O)/C=C/c2ccc(O)c(OC)c2)ccc1O [unformulated curcumin, curcumin]
- Tmax (time taken to reach maximum concentration in plasma) [1]: 3 h
- curcumin dissolved ([2]; after 24 hours): around 0.4%
- Cumulative percent of release of curcumin ([2]; pH 1.2 0.1M HCl): 0.06%
- Cumulative percent of release of curcumin ([2]; pH 6.8 phosphate buffer): 0.08%
- time of maximum absorption of curcuminoids in the plasma [3]: around 30 min

— patent US8785380B2 (priority 2011, dated 2014)
